From patent US5574071A, “Method of lowering cholesterol” (Hoffmann-La Roche Inc., priority 1993, dated 1996)
Counter-ions that a name gives are not always drawn.

system: not listed separately; test: Toxicity (LD50 per os in the mouse); conditions: in vivo, po

Compound	LD50 [mg/kg]
CC(C)=CCCC(=O)c1ccc(-c2ccc(CN(C)C)cc2)cc1 [Compound 20]	1250 to 2500

system: LDL receptor in human hepatoma cells (Hep G2); test: Inhibition of cholesterol synthesis in human hepatoma cells (Hep G2), determined by stimulation of LDL receptors (ELISA, C7-LDL antibody); type: cell-based; conditions: HepG2, Table B, versus untreated cells, read-out: EC50 (concentration which increases the activity of the LDL receptor by 50% in comparison to the control)
Method: Thus, the inhibition of cholesterol :synthesis in human hepatoma cells (Hep G2) was determined on the basis of the stimulation of the LDL receptors induced in parallel. The cells were placed in microtitre plates and treated with the cholesterol synthesis inhibitor. The concentration of the LDL receptor is measured by ELISA methodology, with the C7-LDL antibody being used as the primary antibody. The EC50 values in nM/I in Table B hereinafter correspond to the concentration of cholesterol synthesis inhibitor which increases the activity of the receptor by 50% in comparison to the control, that is, untreated cells.

Compound	EC50 [nM]
C=CCN(C)CCCCCCOc1ccc(C(=O)c2ccc(Br)cc2)c(F)c1 [Example 9d, [4-[6-(allyl-methyl-amino)-hexyloxy]-2-fluoro-phenyl]-(4-bromo-phenyl)-methanone]	57
CCN(C)C/C=C/COc1ccc(C(=O)c2ccc(Br)cc2)cc1 [Example 9s, (E)-(4-bromo-phenyl)-[4-[4-(ethyl-methyl-amino)-but-2-enyloxy]-phenyl]-methanone hydrobromide]	122
CN(C)Cc1ccc(-c2ccc(C(=O)c3ccc([N+](=O)[O-])cc3Cl)cc2)cc1 [Compound 4, 2-chloro-4-nitrophenyl 4'-[(dimethylamino)methyl]-4-biphenylyl ketone]	153
C=CCN(C)CCCCCCOc1ccc(C(=O)c2ccc(Br)cc2)cc1 [Example 9a, [4-[6-(allyl-methyl-amino)-hexyloxy]-phenyl]-(4-bromo-phenyl)-methanone hydrobromide]	51
C=CCN(C)CC=CCOc1ccc(C(=O)c2ccc(Br)cc2)cc1 [Compound 1, trans-4-[[4-(allymethylamino)-2-butenyl]oxy]-4'-bromo-benzophenone]	50
C=CCN(C)C/C=C/COc1ccc(CC(=O)c2ccc(Br)cc2)cc1 [Example 9r, (E)-2-[4-[4-(allyl-methyl-amino)-but-2-enyloxy)-phenyl]-1-(4-bromo-phenyl)-ethanone]	222
C=CCN(C)Cc1ccc(-c2ccc(C(=O)c3ccc(C#N)cc3)cc2)cc1 [Compound 2, p-[[4'-[(allylmethylamino)methyl]-4-biphenylyl]carbonyl]-benzonitrile]	43
C=CCN(C)C/C=C/COc1ccc(C(=O)c2ccc(Br)cc2)cc1F [Example 9f, (E)-[4-[4-(allyl-methyl-amino)-but-2-enyloxy]-3-fluoro-phenyl]-(4-bromo-phenyl)-methanone]	10
C=CCN(C)C/C=C/COc1ccc(C(=O)c2ccc(Br)cc2)c(F)c1 [Example 9n, (E)-[4-[4-(allyl-methyl-amino)-but-2-enyloxy]-2-fluoro-phenyl]-(4-bromo-phenyl)-methanone]	133
C=CCN(C)C/C=C/COc1ccc(C(=O)c2c(F)cccc2F)cc1F [Example 9l, (E)-[4-[4-(allyl-methyl-amino)-but-2-enyloxy]-3-fluoro-phenyl]-(2,6-difluoro-phenyl)-methanone]	220
C=CCN(C)CC=CCOc1ccc(C(=O)c2ccc(Cl)cc2Cl)cc1 [Compound 7, trans-4-[[4-(allymethylamino)-2-butenyl]oxy]-2',4'-dichloro-benzophenone]	82
C=CCN(C)CC=CCOc1ccc(C(=O)c2ccc([N+](=O)[O-])cc2)cc1 [Compound 3, trans-4-[[4-(allylmethylamino)-2-butenyl]oxy]-4'-nitro-benzophenone]	63
C=CCN(C)C/C=C/COc1ccc(C(=O)CCC=C(C)C)cc1 [Example 9m, (E)-I -[4-[4-(allyl-methyl-amino)-but-2-enyloxy]phenyl]-5-methyl-hex-4-en-l-one]	34
C=CCN(C)CCCCCCOc1ccc(C(=O)c2ccc(Br)cc2)cc1F [Example 9c, [4-[6-(ally-methyl-amino)-hexyloxy]-3-fluoro-phenyl]-(4-bromo-phenyl)-methanone]	203
C=CCN(C)C/C=C/COc1ccc(C(=O)c2ccc(C#N)cc2)cc1F [Example 9j, (E)-[4-[4-(allyl-methyl-amino)-but-2-enyloxy]-3-fluoro-benzoyl]-benzonitrile]	19
C=CCN(C)C/C=C/COc1ccc(CC(=O)CCC=C(C)C)cc1F [Example 9p, (E)-1-[4-[4-(allyl-methylamino)-but-2-enyloxy]-3-fluoro-phenyl]-6-methyl-hept-5-en-2-one]	98
C=CCN(C)C/C=C/COc1ccc(C(=O)CCCC(C)C)cc1 [Example 9g, (E)-I -[4-[4-(allyl-methyl-amino)-but-2-enyloxy]-phenyl]-5-methyl-hexan-l-one]	177
C=CCN(C)C/C=C/COc1ccc(C(=O)c2ccc(I)cc2)cc1 [Example 9h, (E)-[4-[4-(allyl-methyl-amino)-but-2-enyloxy]-phenyl]-(4-iodo-phenyl)-methanone]	94
